From US20230406873A1, “PROBES, SYSTEMS, AND METHODS FOR MAGNETIC RESONANCE PH SENSING” (The General Hospital Corporation, priority 2020, published 2023)
Where two headings read alike, the source gives them in different places. Marks after values point to notes of the source that are not given here.

Columns and labels:
[1] = pH-potentiometry of ligand (protonation constants); format: physicochemical; settings: 0.1 M NaCl, 310 K; for log KLH: KLHn = [HnL]/[H][Hn-1L]
Procedure: (§1) pH-potentiometric measurements: pH-potentiometric measurements were performed using an Orion ROSS Ultra pH electrode and temperature-controlled reaction vessel held at 310 K. A standardized solution of 0.10 M NaOH was used as the titrant. The electrode was calibrated prior to each titration by titrating a standardized HCl(aq) solution at ionic strength 0.10 using NaCl as the inert electrolyte with the standardized NaOH titrant. A working slope and intercept were generated by plotting mV as a function of calculated pH, which enabled direct conversion of electrode readings to [H^+] during sample titrations. pH values recorded during the titrations refers to hydrogen ion concentration. All titration samples were prepared in solutions of 0.10 M NaCl in distilled, de-ionized water. Ligand solutions were prepared by dissolving a weighed quantity into the electrolyte and concentration was calculated from the effective weight of the ligand. Moles ligand present in titrand was also confirmed by measuring the mol added NaOH required to span each inflection point. Solutions of 1:1 ligand: Fe were prepared by adding an appropriate volume of standardized FeCl3 in 0.088 M HCl solution to a weighed quantity of ligand, the solutions were then adjusted with water and 1 M NaCl to ionic strength 0.10. The data was analyzed using the Hyperquad2013 software package.

[2] = Dimerization constant from concentration dependence on extinction coefficient at 342 nm (UV-vis); format: physicochemical; settings: Fe^3+ complex, pH 9.0, 310 K
Procedure: UV-vis spectra were recorded on a SpectraMax M2 spectrophotometer using quartz cuvettes with a 1 cm path length. Extinction coefficients recorded at pH 9 (ε, M^−1cm^−1) were estimated by dividing absorbance by sample Fe concentration.

[3] = Dimerization constant from concentration dependence on relaxivity at pH 9.0; format: physicochemical; settings: Fe^3+ complex, pH 9.0, 310 K
Text: (§2) The dissociation constant for (ML)2O formation was estimated from the concentration dependence on r1 at pH 9.0, under these experimental conditions, complexes speciation is comprised near entirely by ML(OH) and the corresponding (ML)2O dimer and r1 can be expressed as Eq 7A, […]
r1=r1^monαmon+r1^dimαdim (Eq 7A) where r1^mon and r1^dim are the r1 corresponding to ML(OH) and (ML)2O and αmon and αdim are the fraction of total [Fe] comprised by each.
The concentration dependence on monomer vs. dimer speciation is governed by the equilibrium constant (Kd) in Eq 7B, Eq 7B can be rearranged to the corresponding quadratic equation, Eq 7C, and concentration of dimer solved by Eq 7D, Thus, the concentration dependence on ri was fit to a 3 parameter fit based on Eqs 7A-7D, yielding estimates of r1^mon, r1^dim, and Kd.

[4] = pH-potentiometry of 1:1 ligand and Fe3+ solution (complex protonation constants, speciation); format: physicochemical; settings: Fe^3+ complex, 0.1 M NaCl, 310 K; for log KML/ML(OH): 7.0 mM each Fe and ligand, [ML]/[ML(OH)][H], not an absolute protonation constant; for log KHML: KHML = [HML]/[H][ML]; for log KML: footnote d only: pH-potentiometry
Procedure: as §1

[5] = Estimation of log K (formation constant) from EDTA competition assay, HPLC; format: physicochemical; settings: Fe^3+ complex; estimated from Kcomp using EDTA challenge; KML = [ML]/[M][L]
Text: The [Fe(PyCy2AI)]^+ formation constant was estimated from direct competition with EDTA at pH 4.4, I=0.1 M KNO3, and 310 K. Product distribution at equilibrium was estimated from an HPLC analysis of the reaction mixture (HPLC method A1). The equilibrium concentrations of [Fe(PyCy2AI)]^+ were quantified according to a linear calibration plot of HPLC peak area as a function of chelate concentration. An equilibrium constant, Keq, was estimated using Eq 4A,
The conditional (pH 4.4) formation constant, Kcond, was estimated from Keq and the previously (Kcond of Fe-EDTA measured under identical conditions using Eq 4B,
Under HPLC experimental conditions that cannot distinguish between chemical forms of the complex, the conditional stability constant can be estimated from the concentration coefficient of the ligand “L”, or PyCy2AI^2−, species (αL), which is known from the ligand pH-titration data. The formation constant was thus estimated using Eq 4C,
The HPLC assay conditions were chosen specifically to minimize contributions from ‘side products’ such as [Fe(HPyCy2AI)]^2+, [Fe(PyC2AI)(OH)], or [Fe(HEDTA)], which together we estimate to contribute <5% and <2% of total PyCy2AI and EDTA speciation.

[6] = Fe^3+ complexes of reference ligands; method and conditions not given; cited from earlier work
[7] = Relaxivity measurements (r1) of Fe-PyCy2AI species; format: physicochemical; settings: Fe^3+ complex; estimated from pH dependence on r1
Procedure: Relaxivity measurements were performed on a Bruker mq60 Minispec, 1.41 T, and on an 11.7 T Varian NMR spectrometer at 37° C. Longitudinal (T1) relaxation times were measured via an inversion recovery experiment using 10 inversion times of duration ranging between 0.05 s T1 and 5 s T1. Transverse (T2) relaxation times were measured using a Carl-Purcell-Meiboom-Gill spin-echo experiment. Under experimental conditions where 1/T1,2 increased linearly with increasing [Fe], relaxivity (r2i=1,2) was determined from the slope of a plot of 1/Ti(i=1,2) vs. [Fe] for at least 4 concentrations. Under conditions where non-negligible dimerization occurs, plots of 1/T1,2 vs. [Fe] are non-linear and r1,2 were estimated by dividing the Fe induced increase in 1/T1,2 by [Fe]. […]
as §2
Magnetic resonance imaging was performed using a Bruker Biospec 4.7 T system. […] T1 values for each compound was determined using a 2D rapid acquisition refocused echo (RARE) sequence of flip angle (FA)=90°, echo time (TE)=20 ms, repetition time (TR) ranging from 146-7500 ms, acquisition matrix=256×128, field of view=64×32 mm, slice thickness 1 mm. […]

Compound	log KLH2 [1]	log KLH3 [1]	log KLH4 [1]	log KLH [1]	Dimerization Ka [2] [mM⁻¹]	Dimerization Ka ([3]; 1.4 T) [mM⁻¹]	Dimerization Ka ([3]; 4.7 T) [mM⁻¹]	Dimerization Ka ([3]; 11.7 T) [mM⁻¹]	log KML/ML(OH) [4]	log KHML ([4]; 7.0 mM ligand and Fe^3+)	log KMLH-1/MLH-2 ([4]; 7.0 mM ligand and Fe^3+, [MLH-1]/[MLH-2][H])	log KML [5]	log KML ([4]; 7.0 mM ligand and Fe^3+)	log KML/ML(OH) [7]	Dimerization Ka [6] [mM⁻¹]
O=C(O)CN(CC(=O)O)C1CCCCC1N(CC(=O)O)CC(=O)O (stereo not shown) [CyDTA, 1,2-Cyclohexylenedinitrilotetraacetic acid]	6.12	3.49	2.40	12.3	–	–	–	–	9.57	–	–	–	29.1	–	0.012
O=C(O)CN(CCN(CC(=O)O)CC(=O)O)CC(=O)O [EDTA, Ethylenediaminetetraacetic acid]	6.13	2.69	2.00	10.19	–	–	–	–	7.37	1.3	–	–	25.1	–	0.44
O=C(O)CN(CCO)CCN(CC(=O)O)CC(=O)O [HEDTA, Hydroxyethylethylenediaminetriacetic acid]	–	–	–	–	–	–	–	–	–	–	–	–	–	–	0.24
CC(CN(CC(=O)O)CC(=O)O)N(CC(=O)O)CC(=O)O (stereo not shown) [PDTA, N,N,N′,N′-1,2-propylenediaminetetracetic acid]	–	–	–	–	–	–	–	–	–	–	–	–	–	–	0.19

Second part, led by results:

log KLH2 [1]	log KLH3 [1]	log KLH4 [1]	log KLH [1]	Dimerization Ka [2] [mM⁻¹]	Dimerization Ka ([3]; 1.4 T) [mM⁻¹]	Dimerization Ka ([3]; 4.7 T) [mM⁻¹]	Dimerization Ka ([3]; 11.7 T) [mM⁻¹]	log KML/ML(OH) [4]	log KHML ([4]; 7.0 mM ligand and Fe^3+)	log KMLH-1/MLH-2 ([4]; 7.0 mM ligand and Fe^3+, [MLH-1]/[MLH-2][H])	log KML [5]	log KML ([4]; 7.0 mM ligand and Fe^3+)	log KML/ML(OH) [7]	Compound	Dimerization Ka [6] [mM⁻¹]
6.44 ± 0.03	4.23 ± 0.033	2.27 ± 0.05	10.62 ± 0.04	6.2 ± 1.5	2.3 ± 0.57	5.1 ± 2.7	7.4 ± 5.5	6.46 ± 0.03	2.91 ± 0.05	10.24 ± 0.05	23.9 ± 0.03^c	–	–	O=C(O)CN(Cc1c[nH]cn1)C1CCCC[C@@H]1N(CC(=O)O)Cc1ccccn1 (mixture of isomers) [PyCy2AI, (±)-trans-N-((1H-imidazol-4-yl)methyl)-N′-(picolyl)-N,N′-cyclohexane-1,2-diamine diacetate bis-trifluoroacetic acid]	–
6.39	3.13	–	10.16	–	–	–	–	–	–	–	26.0^c	–	8.50^g	O=C(O)CN(CC(=O)O)[C@H]1CCCC[C@@H]1N(CC(=O)O)Cc1ccccn1 [PyC3A]	–
